Assay results: patent US9282744B2, “Synergistic fungicide composition” (JIANGSU HUIFENG AGROCHEMICAL CO., LTD., priority 2012, dated 2016)
In brackets after ≈: the same amount, converted by molar mass.

Experiments:
[1] = tested on: cucumber downy mildew pathogenic fungi; test: Test of toxicity of compound benziothiazolinone and dithianon on cucumber downy mildew pathogenic fungi; type: in vivo; conditions: for ATI (actual toxicity index): benziothiazolinone as standard = 100; for EC50: cucumber downy mildew, Table 1
Description: 1. Test of Toxicity of Compound Benziothiazolinone and Dithianon on Cucumber Downy Mildew Pathogenic Fungi
Subjects for Test: Cucumber Downy Mildew Pathogenic Fungi
(§1) The incidence of whole cucumber leaves was investigated according to test grading level, and the disease index and the prevention and treatment effect were calculated.
(§2) The prevention and treatment effect was converted into probability values (y), the heights of the chemicals (μg/ml) were converted into logarithm values (x), the toxicity equation and the median inhibition concentration EC50 were calculated by the least square method, and the toxicity index level co-toxicity coefficient (CTC) of the chemicals was calculated according to the Sun Yunpei's method. Actual toxicity index(ATI)=(EC50 of the standard reagent/EC50 of the test reagent)×100 Theoretical toxicity index(TTI)=the toxicity index of chemicalA×the percentage of A in the mixture+the toxicity index of chemical B×the percentage of B in the mixture Co-toxicity coefficient(CTC)=[Actual toxicity index(ATI) of the mixture/Theoretical toxicity index(TTI) of the mixture][…]

[2] = tested on: cucumber downy mildew pathogenic fungi; test: Test of toxicity of compound benziothiazolinone and dimethomorph on cucumber downy mildew; type: in vivo; conditions: for ATI (actual toxicity index): benziothiazolinone as standard = 100; for EC50: cucumber downy mildew, Table 2
Description: as §1, §2
2. Test of Toxicity of Compound Benziothiazolinone and Dimethomorph on Cucumber Downy Mildew

[3] = tested on: cucumber downy mildew pathogenic fungi; test: Test of toxicity of compound benziothiazolinone and epoxiconazol on cucumber downy mildew; type: in vivo; conditions: for ATI (actual toxicity index): benziothiazolinone as standard = 100; for EC50: cucumber downy mildew, Table 4
Description: as §1, §2
4. Test of Toxicity of Compound Benziothiazolinone and Epoxiconazol on Cucumber Downy Mildew

[4] = tested on: cucumber downy mildew pathogenic fungi; test: Test of toxicity of compound benziothiazolinone and iprodione on cucumber downy mildew; type: in vivo; conditions: for ATI (actual toxicity index): benziothiazolinone as standard = 100; for EC50: cucumber downy mildew, Table 3
Description: as §1, §2
3. Test of Toxicity of Compound Benziothiazolinone and Iprodione on Cucumber Downy Mildew

oomycetes fungi = conditions: formation stages of sporangiophores and oospores of oomycetes; cited from earlier work
[5] = Cucumis sativus, read-out: EC50

## O=c1[nH]sc2ccccc12 [Benziothiazolinone]
[1]
  ATI (actual toxicity index): 100.0
  EC50: 3.25 µg/mL (≈ 21.5 µM)
[2]
  ATI (actual toxicity index): 100.0
  EC50: 4.08 µg/mL (≈ 27 µM)
[3]
  ATI (actual toxicity index): 100.00
  EC50: 3.81 µg/mL (≈ 25.2 µM)
[4]
  ATI (actual toxicity index): 100.00
  EC50: 4.21 µg/mL (≈ 27.8 µM)

## COc1ccc(C(=CC(=O)N2CCOCC2)c2ccc(Cl)cc2)cc1OC [Dimethomorph]
Oomycetes fungi
  concentration at which inhibited: 0.25 µg/mL
[2]; [5]
  EC50: 6.36 µg/mL (≈ 16.4 µM)
[2]
  ATI (actual toxicity index): 63.9

## N#Cc1sc2c(=O)c3ccccc3c(=O)c=2sc1C#N [Dithianon]
[1]; [5]
  EC50: 5.41 µg/mL (≈ 18.3 µM)
[1]
  ATI (actual toxicity index): 60.1

## Fc1ccc([C@]2(Cn3cncn3)O[C@H]2c2ccccc2Cl)cc1 [Epoxiconazol]
[3]
  ATI (actual toxicity index): 89.65
  EC50: 4.25 µg/mL (≈ 12.9 µM)

## CC(C)NC(=O)N1CC(=O)N(c2cc(Cl)cc(Cl)c2)C1=O [Iprodione]
[4]; [5]
  EC50: 5.82 µg/mL (≈ 17.6 µM)
[4]
  ATI (actual toxicity index): 72.34
